According to ChEMBL document CHEMBL1201862, “PubChem BioAssay data set” (2004):
Values belong to the compound of their own block, whether it stands above or below them. Activity calls are given as the source filed them.

Columns and labels:
[1] = target: T1, RNA-binding protein pos-1 (Caenorhabditis elegans, UniProt G5EF15); test: disruptors of C. elegans POS-1 RNA interaction – biochemical, fluorescence polarization, dose response (AID 1964);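 also: purified POS-1 fused to maltose binding protein made in E. coli; potency of compounds blocking POS-1 binding to fluorescent RNA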
T1 sequence (G5EF15 whole entry): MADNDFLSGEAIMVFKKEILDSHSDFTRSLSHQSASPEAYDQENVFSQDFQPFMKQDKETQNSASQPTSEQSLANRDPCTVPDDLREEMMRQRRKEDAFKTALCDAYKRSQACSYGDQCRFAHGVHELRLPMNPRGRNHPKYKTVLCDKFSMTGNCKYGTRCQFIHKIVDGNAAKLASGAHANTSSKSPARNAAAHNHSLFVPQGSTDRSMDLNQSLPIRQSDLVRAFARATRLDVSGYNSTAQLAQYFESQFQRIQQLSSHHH

[2] = target: T2, Zinc finger protein mex-5 (Caenorhabditis elegans, UniProt Q9XUB2); test: potency of MEX-5 RNA-binding blockers – biochemical, C. elegans, fluorescence polarization, dose response (AID 1960)
T2 sequence (Q9XUB2 whole entry): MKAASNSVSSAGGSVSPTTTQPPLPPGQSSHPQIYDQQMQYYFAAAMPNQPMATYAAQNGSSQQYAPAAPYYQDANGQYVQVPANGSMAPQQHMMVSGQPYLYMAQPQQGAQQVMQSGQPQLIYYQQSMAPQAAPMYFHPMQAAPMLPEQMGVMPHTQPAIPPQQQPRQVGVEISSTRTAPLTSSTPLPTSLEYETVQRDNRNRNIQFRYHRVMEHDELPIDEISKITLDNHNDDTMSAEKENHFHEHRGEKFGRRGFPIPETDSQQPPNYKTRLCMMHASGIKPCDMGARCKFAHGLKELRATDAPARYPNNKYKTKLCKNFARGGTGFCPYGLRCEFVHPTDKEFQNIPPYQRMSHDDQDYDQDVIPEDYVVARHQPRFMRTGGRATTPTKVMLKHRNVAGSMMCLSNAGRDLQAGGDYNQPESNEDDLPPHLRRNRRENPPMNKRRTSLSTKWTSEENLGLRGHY

[3] = target: T3, Heat shock factor protein 1 (Mus musculus, UniProt P38532); test: decrease of HSF1-responsive luciferase luminescence – cell-based, NIH3T3, dose retest, confirmation (AID 2382); assay type: functional;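 also: NIH3T3 fibroblasts with HSF1-driven luciferase reporter stressed by proteasome inhibitor MG132; luminescence from HSF1-driven luciferase expression after 8 hours of MG132 stress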
T3 sequence (P38532 whole entry): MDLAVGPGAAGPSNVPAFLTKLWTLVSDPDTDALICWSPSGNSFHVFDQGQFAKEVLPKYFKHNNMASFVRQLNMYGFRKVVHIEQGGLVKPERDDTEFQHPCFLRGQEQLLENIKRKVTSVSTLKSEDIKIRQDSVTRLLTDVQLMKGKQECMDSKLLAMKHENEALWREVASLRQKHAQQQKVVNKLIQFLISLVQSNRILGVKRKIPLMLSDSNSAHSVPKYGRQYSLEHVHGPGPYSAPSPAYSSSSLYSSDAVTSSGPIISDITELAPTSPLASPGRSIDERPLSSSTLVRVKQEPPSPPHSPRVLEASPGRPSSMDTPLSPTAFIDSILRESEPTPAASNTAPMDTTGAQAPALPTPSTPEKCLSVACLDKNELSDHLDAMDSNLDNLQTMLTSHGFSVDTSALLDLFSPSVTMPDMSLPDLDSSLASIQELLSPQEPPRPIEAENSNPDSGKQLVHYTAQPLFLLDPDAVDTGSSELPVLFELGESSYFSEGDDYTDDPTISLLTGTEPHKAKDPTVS

[4] = target: T4, Corticotropin-releasing factor receptor 2/Corticotropin-releasing factor-binding protein (Homo sapiens, UniProt P24387+Q13324); test: activators of CRF receptor 2 with binding protein – uHTS hits, confirmation (AID 602473); assay type: functional; details: read-out: EC50_Mean
T4 sequence (Q13324 whole entry): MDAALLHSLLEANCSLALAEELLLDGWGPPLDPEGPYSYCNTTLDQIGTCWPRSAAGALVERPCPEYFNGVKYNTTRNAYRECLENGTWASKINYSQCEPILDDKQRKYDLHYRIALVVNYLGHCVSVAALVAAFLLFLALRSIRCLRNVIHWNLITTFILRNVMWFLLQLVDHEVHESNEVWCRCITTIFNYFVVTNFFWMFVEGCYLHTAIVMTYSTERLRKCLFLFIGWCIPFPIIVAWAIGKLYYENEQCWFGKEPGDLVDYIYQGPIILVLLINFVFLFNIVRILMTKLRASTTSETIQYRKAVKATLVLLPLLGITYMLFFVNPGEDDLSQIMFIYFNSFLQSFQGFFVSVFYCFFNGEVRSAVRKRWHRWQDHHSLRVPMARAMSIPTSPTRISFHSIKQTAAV
T4 sequence (P24387 whole entry): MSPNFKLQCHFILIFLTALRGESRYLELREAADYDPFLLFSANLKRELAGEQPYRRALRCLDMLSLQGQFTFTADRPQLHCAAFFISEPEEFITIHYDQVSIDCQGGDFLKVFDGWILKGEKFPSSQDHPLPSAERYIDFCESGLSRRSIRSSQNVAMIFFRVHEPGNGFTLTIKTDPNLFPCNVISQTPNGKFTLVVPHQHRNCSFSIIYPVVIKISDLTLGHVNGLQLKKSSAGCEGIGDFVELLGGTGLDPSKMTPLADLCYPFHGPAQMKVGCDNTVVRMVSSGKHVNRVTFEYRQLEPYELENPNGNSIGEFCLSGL

[5] = target: T5, Rac GTPase-activating protein 1 (Homo sapiens, UniProt Q9H0H5); test: blockers of MgcRacGAP-driven Rac1 GTP hydrolysis – biochemical, ADP Hunter fluorescence, primary and confirmatory, confirmation (AID 624330); assay type: functional
T5 sequence (Q9H0H5 whole entry): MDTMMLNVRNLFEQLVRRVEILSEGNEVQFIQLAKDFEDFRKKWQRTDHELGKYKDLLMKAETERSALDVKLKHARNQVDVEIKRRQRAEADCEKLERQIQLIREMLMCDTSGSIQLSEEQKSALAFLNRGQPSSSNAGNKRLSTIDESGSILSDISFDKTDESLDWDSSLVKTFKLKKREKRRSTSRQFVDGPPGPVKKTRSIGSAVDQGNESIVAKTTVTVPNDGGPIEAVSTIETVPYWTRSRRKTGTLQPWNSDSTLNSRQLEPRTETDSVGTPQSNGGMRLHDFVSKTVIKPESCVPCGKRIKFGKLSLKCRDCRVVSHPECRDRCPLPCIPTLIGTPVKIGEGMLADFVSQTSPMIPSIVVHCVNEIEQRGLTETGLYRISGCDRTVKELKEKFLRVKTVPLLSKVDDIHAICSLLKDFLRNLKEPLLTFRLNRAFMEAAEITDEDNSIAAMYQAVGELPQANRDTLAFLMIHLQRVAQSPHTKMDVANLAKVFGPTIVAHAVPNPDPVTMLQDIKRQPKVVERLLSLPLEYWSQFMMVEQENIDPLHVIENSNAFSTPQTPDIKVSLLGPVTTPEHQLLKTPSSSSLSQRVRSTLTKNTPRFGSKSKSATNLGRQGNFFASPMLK

[6] = target: Cytochrome P450 2C19 (Homo sapiens, UniProt P33261); test: Cytochrome panel assay with activity outcomes. Panel member name: p450-cyp2c19 Compounds with AC50 equal or less than 10 uM are considered active; assay type: functional; details: read-out: AC50
Chain of Cytochrome P450 2C19 (P33261 whole entry): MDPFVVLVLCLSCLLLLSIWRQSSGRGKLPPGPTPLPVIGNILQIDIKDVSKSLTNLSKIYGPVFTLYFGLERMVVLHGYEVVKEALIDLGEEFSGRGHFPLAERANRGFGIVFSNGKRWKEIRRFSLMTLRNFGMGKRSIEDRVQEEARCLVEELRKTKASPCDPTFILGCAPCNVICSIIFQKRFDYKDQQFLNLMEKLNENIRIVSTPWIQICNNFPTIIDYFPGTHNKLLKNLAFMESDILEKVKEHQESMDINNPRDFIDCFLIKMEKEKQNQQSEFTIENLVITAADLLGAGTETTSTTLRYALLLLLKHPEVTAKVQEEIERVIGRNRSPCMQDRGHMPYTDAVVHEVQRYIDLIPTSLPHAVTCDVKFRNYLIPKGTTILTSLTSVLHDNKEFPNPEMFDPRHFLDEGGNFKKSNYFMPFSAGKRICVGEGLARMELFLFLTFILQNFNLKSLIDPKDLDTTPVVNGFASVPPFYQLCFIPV

[7] = target: T6, Cytochrome P450 1A2 (Homo sapiens, UniProt P05177);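 also: PubChem cytochrome P450 panel assay, CYP1A2 panel member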
T6 sequence (P05177 whole entry): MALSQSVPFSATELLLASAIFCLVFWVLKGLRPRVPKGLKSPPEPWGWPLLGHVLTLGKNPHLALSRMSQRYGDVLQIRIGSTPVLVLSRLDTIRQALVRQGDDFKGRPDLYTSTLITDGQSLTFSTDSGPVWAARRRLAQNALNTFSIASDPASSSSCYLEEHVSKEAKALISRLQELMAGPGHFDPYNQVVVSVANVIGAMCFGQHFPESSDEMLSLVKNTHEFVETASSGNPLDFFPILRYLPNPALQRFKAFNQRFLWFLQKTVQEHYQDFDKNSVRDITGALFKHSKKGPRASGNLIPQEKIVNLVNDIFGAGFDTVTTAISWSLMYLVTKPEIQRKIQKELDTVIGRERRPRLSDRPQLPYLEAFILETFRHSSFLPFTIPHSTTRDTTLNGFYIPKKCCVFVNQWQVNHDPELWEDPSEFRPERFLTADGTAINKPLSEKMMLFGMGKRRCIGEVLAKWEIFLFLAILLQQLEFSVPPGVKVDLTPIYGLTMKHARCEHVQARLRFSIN

Compound: CCOC(=O)c1c(NC(=O)CN2CCCCC2)sc2c1CCC(C=O)=C2Cl
- EC50 [3]: > 195 µM (not active)

Compound: COc1cc(/C=N/Nc2ccc(C(F)(F)F)cn2)ccc1O
- IC50 [5]: 36.3 µM (active)

Compound: COc1cc(/C=C/c2nc(O)c3ccccc3n2)ccc1O
- IC50 [5]: 41.4 µM (active)

Compound: CCOc1ccc(/C=N/NC(=O)C(O)c2ccccc2)c(O)c1 (stereo not drawn)
- EC50 [3]: > 195 µM (not active)

Compound: Cc1cc(C)c2cc(CN(CCN(C)C)C(=O)Nc3ccccc3Cl)c(O)nc2c1
- EC50 [3]: > 195 µM (not active)

Compound: Cc1nn(C(C)C(=O)NCCCc2ccccc2)c(=O)c2cc3occc3n12 (stereo not drawn)
- EC50 [3]: > 195 µM (not active)

Compound: CC(Oc1ccc(Br)cc1)C(=O)Nc1ccc(S(=O)(=O)NC2=NCCCCC2)cc1 (stereo not drawn)
- EC50 [4]: 4.66 µM (active)

Compound: Cc1cccc(C)c1NC(=O)c1cccnc1
- EC50 [3]: > 195 µM (not active)

Compound: Cc1cc(C)nc(NNC2=CC(=[N+]3CCCCC3)CC(C)(C)C2)n1
- EC50 [3]: > 195 µM (not active)

Compound: Cc1ccc(-c2nn[nH]n2)o1
- EC50 [3]: > 195 µM (not active)

Second part, the compound after the results:

- EC50 [1]: > 300 µM (not active)
- EC50 [2]: > 300 µM (not active)
Compound: Cc1cc(/C=N/n2cnnc2)c(C)n1-c1cccc(C(=O)O)c1

- EC50 [3]: > 195 µM (not active)
Compound: COc1cc(C2C(C#N)=C(N)N(N(C)C)C3=C2C(=O)CC(C)(C)C3)ccc1O (stereo not drawn)

- EC50 [4]: > 53 µM (inactive)
Compound: Cc1nn(CC(=O)N(C)C2(C#N)CCCCC2)c(C)c1[N+](=O)[O-]

- IC50 [5]: 46.8 µM (active)
Compound: C=CCn1c(N/N=C/c2ccc(O)cc2)nc2ccccc2c1=O

- EC50 [3]: > 195 µM (not active)
Compound: COc1ccc(NC(=O)CCc2nnc3ccc(N4CCC(C)CC4)nn23)cc1OC

- EC50 [3]: > 195 µM (not active)
Compound: Cc1ccc(C)c(NC(=O)CCc2nnc3ccc(NCc4ccco4)nn23)c1

- EC50 [4]: > 53 µM (inactive)
Compound: Cc1ccc2c(c1)N(C(=O)CCC(=O)N1CCN(c3ccccn3)CC1)CCO2

- IC50 [5]: 84 µM (active)
Compound: COc1ccc(NC2CCCN(C(=O)COc3ccc(C(C)=O)cc3)C2)cc1 (stereo not drawn)

- EC50 [3]: > 195 µM (not active)
Compound: Cc1onc(-c2ccccc2)c1C(=O)Nc1sc2c(c1C(N)=O)CCC2

- AC50 [6]: 39.8 µM (inconclusive)
- AC50 [7]: 39.8 µM (inconclusive)
Compound: CCN1CC=C2C(C#N)=C(N)C(C#N)(C#N)[C@H](c3ccoc3)[C@H]2C1

- EC50 [4]: > 53 µM (inactive)
Compound: CCOc1ccc(C2=CC(c3ccccc3)n3ncnc3N2)cc1 (stereo not drawn)
